For orientation: EC50 means the midpoint of the concentration-response curve.

26 compounds from patent publication US11672799B2, “1,4-disubstituted pyridazine quinolne analogs there of and methods for treating SMN-deficiency-related conditions” (Novartis AG, priority 2013, dated 2023) can be followed below.

Read-outs that look alike come from different tables or passages of the source.

The test relates to SMN protein. Kind of test: cellular SMN ELISA (SMN protein elevation) in myoblast cell line from SMNdelta7 mouse model. It is filed as cell-based. As for the experimental part: A cellular SMN ELISA was used to measure the effects of low molecular weight compounds on SMN protein elevation. Cells from a myoblast cell line derived from the SMNdelta7 mouse model (kind gift from Steve Burden, NYU) were seeded into a 384-well plate at a density of 3000 cells/well and treated with compounds for 24 hours. ELISA capture plates were prepared by coating 384-well plates (Immulon 4HBX) with 0.5 ug/mL of anti-SMN mAb (BD Science, Catalog number 610647) at 4° C. overnight. The plates were washed 5 times with 110 uL of PBS-Tween (0.05% Tween-20, PBST), blocked with 100 uL of 1% BSA in PBST for 2 hours and washed (5 times) with 100 uL of PBST. After 24 hours of compound treatment cells were lysed in a modified RIPA-buffer, on ice for 1 hour. 20 uL of lysate and 20 uL of 1% BSA were then added to the ELISA capture plates and incubated at 4° C. overnight. Plates were washed (5 times) with PBST and then incubated with 1:100 dilution of primary rabbit anti-SMN polyclonal antibody (Santa cruz, Catalog number SC-15320) at room temperature for 1 hour and subsequently washed (5 times) with 110 uL of PBST. This was followed by addition of 1:100 Goat anti-Rabbit IgG-HRP linked (Cell Signaling, Catalog number 7074) secondary antibody for 1 hour. Plates were then washed with PBST and incubated with 40 uL TMB substrate (Cell Signaling, Catalog number 7004 L) at room temperature for 1-10 minutes with shaking. The reaction was stopped by addition of 40 uL of stop solution (Cell signaling, Catalog number 7002 L) and absorption was measured at 450 nm. Data was reported as fold activation over DMSO control, and EC50.
ELISA assay condition 1: compound concentration range 20 nM-10 uM; ELISA assay condition 2: compound concentration 100 pM-10 uM. Data generated in Biological Example 1 using ELISA conditions 1 or 2.

Where [1] appears, read: comparison of unsubstituted, ortho-hydroxy and ortho-alkoxy pyridazines, as in Biological Example 1.
Setting [2] is: Biological Example 1, SMN ELISA, SMNdelta7 mouse myoblasts, 24 hours compound treatment.
The mark [3] stands for this setting: Biological Example 1, SMN ELISA, SMNdelta7 mouse myoblasts, 24 hours compound treatment, read-out: SMN Activity (EC50).
Setting [4] is: comparison of unsubstituted, ortho-hydroxy and ortho-alkoxy pyridazines, as in Biological Example 1, read-out: SMN ELISA EC50.

Regarding `CCOc1cc2nccnc2cc1-c1ccc(N(C)C2CC(C)(C)NC(C)(C)C2)nn1` [drawing 139 R = OEt, 6-(7-Ethoxyquinoxalin-6-yl)-N-methyl-N-(2,2,6,6-tetramethylpiperidin-4-yl)pyridazin-3-amine], under setting [1], the “SMN ELISA EC50” value is “Inactive”.

As to `CN(c1ccc(-c2cc3cnccc3cc2O)nn1)C1CC(C)(C)N(C)C(C)(C)C1` [Example 3-1, 7-(6-(methyl(1,2,2,6,6-pentamethylpiperidin-4-yl)amino)pyridazin-3-yl)isoquinolin-6-ol], under setting [2], the “SMN Activity (fold activation over DMSO control)” value is recorded as 3.1 fold. In addition, the EC50 under setting [3] worked out at 70 nM.

With `Cc1nccc2cc(-c3ccc(N(C)C4CC(C)(C)NC(C)(C)C4)nn3)c(O)cc12` [Example 29-1, 1-methyl-6-(6-(methyl(2,2,6,6-tetramethylpiperidin-4-yl)amino)pyridazin-3-yl)isoquinolin-7-ol], the “SMN Activity (fold activation over DMSO control)” value under setting [2] is 2.96 fold. Further, under setting [3], the EC50 worked out at 14 nM.

In the case of `CN(c1ccc(-c2ccc3cccnc3c2)nn1)C1CC(C)(C)NC(C)(C)C1` [drawing 136 R = H], the Fold activation under setting [1] is on record as 2.5. For the same compound, the EC50 under setting [4] came to 370 nM.

In the case of `CC1(C)CC(Oc2ccc(-c3cc4cnccc4cc3O)nn2)CC(C)(C)N1` [Example 3-3, 7-(6-((2,2,6,6-tetramethylpiperidin-4-yl)oxy)pyridazin-3-yl)isoquinolin-6-ol], the “SMN Activity (fold activation over DMSO control)” value under setting [2] is reported as 2.5 fold. Moreover, the concentration giving a half-maximal response (EC50) under setting [3] worked out at 83 nM.

Take `Oc1cc2ccncc2cc1-c1ccc(N2CCNCC2)nn1` [Example 27-3, 7-(6-(piperazin-1-yl)pyridazin-3-yl)isoquinolin-6-ol]: the “SMN Activity (fold activation over DMSO control)” value under setting [2] is given as 2.74 fold. Also, the EC50 under setting [3] is 199 nM.

`N#Cc1ccc2cc(-c3ccc(N4CCNCC4)nn3)c(O)cc2n1` [Example 27-2, 7-hydroxy-6-(6-(piperazin-1-yl)pyridazin-3-yl)quinoline-2-carbonitrile]: the “SMN Activity (fold activation over DMSO control)” value under setting [2] is reported as 2.42 fold. Also, the half-maximal effective concentration (EC50) under setting [3] was 395 nM.

As for `CN(c1ccc(-c2cc3cnc(-c4ccccc4)cc3cc2O)nn1)C1CC(C)(C)NC(C)(C)C1` [Example 36-1, 7-(6-(methyl(2,2,6,6-tetramethyl-piperidin-4-yl)amino)-pyridazin-3-yl)-3-phenylisoquinolin-6-ol], under setting [2], the “SMN Activity (fold activation over DMSO control)” value turned out to be 2.32 fold. For the same compound, the concentration for a half-maximal effect (EC50) under setting [3] came to 282 nM.

Turning to `COc1cc2cccnc2cc1-c1ccc(N(C)C2CC(C)(C)NC(C)(C)C2)nn1` [drawing 136 R = OMe, 6-(6-Methoxyquinolin-7-yl)-N-methyl-N-(2,2,6,6-tetramethylpiperidin-4-yl)pyridazin-3-amine], the Fold activation under setting [1] turned out to be 1.7. In addition, the EC50 under setting [4] worked out at 1170 nM.

With `CN(c1ccc(-c2cc3nccc(Cl)c3cc2O)nn1)C1CC(C)(C)NC(C)(C)C1` [Preparation 13, 4-chloro-7-(6-(methyl(2,2,6,6-tetramethylpiperidin-4-yl)amino)pyridazin-3-yl)quinolin-6-ol], the “SMN Activity (fold activation over DMSO control)” value under setting [2] is 2.6 fold. The concentration for a half-maximal effect (EC50) under setting [3] came out at 7 nM.

Consider `CN(c1ccc(-c2cc3cccnc3cc2O)nn1)C1CC(C)(C)N(C)C(C)(C)C1` [Example 1-2, 6-(6-(methyl(1,2,2,6,6-pentamethylpiperidin-4-yl)amino)pyridazin-3-yl)quinolin-7-ol], for which the “SMN Activity (fold activation over DMSO control)” value under setting [2] was found to be 2.4 fold. Moreover, under setting [3], the EC50 was determined as 340 nM.

Consider `Cc1cc(N2CCOCC2)c2cc(-c3ccc(N(C)C4CC(C)(C)NC(C)(C)C4)nn3)c(O)cc2n1` [Example 10-3, 2-Methyl-6-(6-(methyl(2,2,6,6-tetramethylpiperidin-4-yl)amino)pyridazin-3-yl)-4-morpholinoquinolin-7-ol], for which, under setting [2], the “SMN Activity (fold activation over DMSO control)” value was found to be 2.6 fold. The EC50 under setting [3] came out at 110 nM.

Consider `Cc1nc2cc(O)c(-c3ccc(N(C)C4CC(C)(C)NC(C)(C)C4)nn3)cc2nc1C` [Example 18-1, 2,3-dimethyl-7-(6-(methyl(2,2,6,6-tetramethylpiperidin-4-yl)amino)pyridazin-3-yl)quinoxalin-6-ol], for which the “SMN Activity (fold activation over DMSO control)” value under setting [2] stood at 3.24 fold. For the same compound, the EC50 under setting [3] worked out at 15 nM.

On to `CCc1cnc2cc(O)c(-c3ccc(N(C)C4CC(C)(C)NC(C)(C)C4)nn3)cc2c1` [Example 8-1, 3-ethyl-6-(6-(methyl(2,2,6,6-tetramethylpiperidin-4-yl)amino)pyridazin-3-yl)quinolin-7-ol], for which, under setting [2], the “SMN Activity (fold activation over DMSO control)” value was 2.9 fold. The concentration giving a half-maximal response (EC50) under setting [3] amounted to 86 nM.

As for `CN(c1ccc(-c2cc3cncnc3cc2O)nn1)C1CC(C)(C)NC(C)(C)C1` [Example 23-1, 6-(6-(methyl(2,2,6,6-tetramethylpiperidin-4-yl)amino)pyridazin-3-yl)quinazolin-7-ol], the “SMN Activity (fold activation over DMSO control)” value under setting [2] is reported as 3.6 fold. The EC50 under setting [3] came out at 41 nM.

In the case of `COC(=O)c1ccc2cc(O)c(-c3ccc(N(C)C4CC(C)(C)NC(C)(C)C4)nn3)cc2n1` [Example 26-7, methyl 6-hydroxy-7-(6-(methyl(2,2,6,6-tetramethylpiperidin-4-yl)amino)pyridazin-3-yl)quinoline-2-carboxylate], the “SMN Activity (fold activation over DMSO control)” value under setting [2] was determined as 2.64 fold. The EC50 under setting [3] is 17 nM.

For the compound `Cc1cc(N(C)C)c2cc(-c3ccc(N(C)C4CC(C)(C)NC(C)(C)C4)nn3)c(O)cc2n1` [Example 10-4, 4-(Dimethylamino)-2-methyl-6-(6-(methyl(2,2,6,6-tetramethylpiperidin-4-yl)amino)pyridazin-3-yl)quinolin-7-ol], the “SMN Activity (fold activation over DMSO control)” value under setting [2] amounted to 2.7 fold. Moreover, the EC50 under setting [3] was found to be 12 nM.

Turning to `COc1cc(C)nc2cc(O)c(-c3ccc(N(C)C4CC(C)(C)NC(C)(C)C4)nn3)cc12` [Example 10-1, 4-methoxy-2-methyl-6-(6-(methyl(2,2,6,6-tetramethylpiperidin-4-yl)amino)pyridazin-3-yl)quinolin-7-ol], the “SMN Activity (fold activation over DMSO control)” value under setting [2] is 3.3 fold. Further, the concentration for a half-maximal effect (EC50) under setting [3] came out at 10 nM.

On to `CN(c1ccc(-c2cc3nc(C#N)ccc3cc2O)nn1)C1CC(C)(C)NC(C)(C)C1` [Example 26-3, 6-hydroxy-7-(6-(methyl(2,2,6,6-tetramethylpiperidin-4-yl)amino)pyridazin-3-yl)quinoline-2-carbonitrile], for which, under setting [2], the “SMN Activity (fold activation over DMSO control)” value came out at 3.47 fold. Besides, the EC50 under setting [3] worked out at 6 nM.

For `Cc1cc(C2=CCOCC2)c2cc(-c3ccc(N(C)C4CC(C)(C)NC(C)(C)C4)nn3)c(O)cc2n1` [Example 20-4, 4-(3,6-dihydro-2H-pyran-4-yl)-2-methyl-6-(6-(methyl(2,2,6,6-tetramethylpiperidin-4-yl)amino)pyridazin-3-yl)quinolin-7-ol], under setting [2], the “SMN Activity (fold activation over DMSO control)” value was determined as 2.72 fold. The EC50 under setting [3] came out at 166 nM.

Regarding `CN(c1ccc(-c2cc3cc(Cl)cnc3cc2O)nn1)C1CC(C)(C)NC(C)(C)C1` [Example 7-1, 3-chloro-6-(6-(methyl(2,2,6,6-tetramethylpiperidin-4-yl)amino)pyridazin-3-yl)quinolin-7-ol], under setting [2], the “SMN Activity (fold activation over DMSO control)” value is given as 2.8 fold. The half-maximal effective concentration (EC50) under setting [3] stood at 14 nM.

`Cc1cnc2cc(O)c(-c3ccc(N(C)C4CC(C)(C)NC(C)(C)C4)nn3)cc2n1` [Example 18-2, 2-methyl-7-(6-(methyl(2,2,6,6-tetramethylpiperidin-4-yl)amino)pyridazin-3-yl)quinoxalin-6-ol]: the “SMN Activity (fold activation over DMSO control)” value under setting [2] is given as 3.31 fold. The EC50 under setting [3] was found to be 9 nM.

`CN(c1ccc(-c2ccc3ncccc3c2)nn1)C1CC(C)(C)NC(C)(C)C1` [drawing 135 R = H]: the Fold activation under setting [1] worked out at 2.2. The EC50 under setting [4] was 660 nM.

Regarding `CN1C[C@@H]2CN(c3ccc(-c4cc5cccnc5cc4O)nn3)C[C@@H]2C1` [Example 1-3, 6-(6-((3aR,6aS)-5-methylhexahydropyrrolo[3,4-c]pyrrol-2(1H)-yl)pyridazin-3-yl)quinolin-7-ol], the “SMN Activity (fold activation over DMSO control)” value under setting [2] is reported as 2.5 fold. Under setting [3], the EC50 came to 255 nM.

Regarding `CN(c1ccc(-c2cc3ccc(C(N)=O)nc3cc2O)nn1)C1CC(C)(C)NC(C)(C)C1` [Example 26-5, 7-hydroxy-6-(6-(methyl(2,2,6,6-tetramethylpiperidin-4-yl)amino)pyridazin-3-yl)quinoline-2-carboxamide], the “SMN Activity (fold activation over DMSO control)” value under setting [2] amounted to 2.16 fold. Besides, the 50% effective concentration (EC50) under setting [3] is 1 nM.

`CN(c1ccc(-c2cc3ncc(Br)cc3cc2O)nn1)C1CC(C)(C)NC(C)(C)C1` [Example 15-2, 3-bromo-7-(6-(methyl(2,2,6,6-tetramethylpiperidin-4-yl)amino)pyridazin-3-yl)quinolin-6-ol]: under setting [2], the “SMN Activity (fold activation over DMSO control)” value is listed as 2.52 fold. The EC50 under setting [3] is 19 nM.
